In ChEMBL document CHEMBL1201862, “PubChem BioAssay data set” (2004) one finds IC50, AC50 and EC50 data, which are given here for ten molecules.

In assay [1] the target is DNA dC->dU-editing enzyme APOBEC-3A (Homo sapiens, UniProt P31941). Kind of assay: Dose Response confirmation of small molecule APOBEC3A DNA Deaminase Inhibitors via a fluorescence-based single-stranded DNA deaminase assay. [Related pubchem assays (depositor defined):AID493011, AID493024]. The class given is functional.
Assay [2] has as its target DNA dC->dU-editing enzyme APOBEC-3G (Homo sapiens, UniProt Q9HC16). The class given is functional.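 Further: Dose-response counterscreen measuring inhibition of APOBEC3G DNA deaminase activity, run while confirming APOBEC3A inhibitors.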
In the next assay the target is T1, Caspase-6 (Homo sapiens, UniProt P55212).
T1 sequence (P55212 whole entry): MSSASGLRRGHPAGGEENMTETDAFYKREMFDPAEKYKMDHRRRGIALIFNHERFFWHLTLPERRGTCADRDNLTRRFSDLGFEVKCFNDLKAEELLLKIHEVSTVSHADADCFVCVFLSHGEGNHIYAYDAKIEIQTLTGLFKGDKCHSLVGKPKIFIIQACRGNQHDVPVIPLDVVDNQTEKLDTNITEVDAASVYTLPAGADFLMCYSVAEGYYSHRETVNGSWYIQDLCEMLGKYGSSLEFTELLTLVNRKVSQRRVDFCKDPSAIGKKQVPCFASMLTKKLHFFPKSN
Kind of assay: inhibition of CASP6 peptide cleavage – biochemical, VEID-R110 fluorescence, cherry-pick, dose response (AID 720632).

Assay [3] can be described thus: Luminescence Cell-Based Dose Confirmation HTS to Identify Activators of 5'UTR Stem-Loop Driven Alpha-Synuclein mRNA Translation in H4 Neuroglioblastoma Cells. [Related pubchem assays: 1829 (Project Summary), 1814 (Primary HTS)]. The class given is functional.
A short description of assay [4]: Luminescence Cell-Based Dose Response HTS to Identify Activators of Luciferase Translation or Activity in H4 […] Cells. [Related pubchem assays: 1829 (Project Summary), 1814 (Primary HTS)]. The class given is functional.
The subject of a further assay is H4. Kind of assay: Luminescence Cell-Based Dose Response HTS to Identify Activators of 5'UTR Stem-Loop Driven Prion Protein mRNA Translation in H4 Neuroglioblastoma Cells. [Related pubchem assays: 1829 (Project Summary), 1814 (Primary HTS)]. The class given is functional. The following applies: Homo sapiens.
In assay [5] the target is T2, Beta-galactosidase (Escherichia coli, UniProt Q8VNN2). Kind of assay: detection-enzyme interference by beta-gal modulators – biochemical, E. coli enzyme, set 3, artefact control for CCR6 antagonist project, dose response (AID 504712). The class given is functional.
The target of assay [6] is T3, E3 ubiquitin-protein ligase XIAP (Homo sapiens, UniProt P98170). In words: Counter Screen using XIAP-Bir3 for Chemical Antagonists of Bir1/2 domains of IAP-family anti-apoptotic proteins. [Related pubchem assays (depositor defined):AID1018, AID1449, AID1514, AID1638, AID1749, AID1750, AID488957, AID488963]. A general note: The purpose of a counterscreen is to sort out artefacts and off-target activity.

Assay [7] addresses T3, E3 ubiquitin-protein ligase XIAP. Kind of assay: small molecules displacing peptide from XIAP – biochemical, IAP family, fluorescence polarization (AID 1018). The class given is functional.
Assay [8] concerns the target T2, Beta-galactosidase. Kind of assay: Dose response counterscreen for EBI2 assay utilizing the enzyme, b-galactosidase. The class given is functional.
Assay [9] concerns the target T4, Voltage-gated N-type calcium channel alpha-1B subunit/Amyloid beta A4 precursor protein-binding family A member 1 (Homo sapiens, UniProt Q00975+Q02410). The class given is protein assay.
In assay [10] the target is T4, Voltage-gated N-type calcium channel alpha-1B subunit/Amyloid beta A4 precursor protein-binding family A member 1. The class given is protein assay. The source holds these as a separate data set.
Assay [11] concerns the target Induced myeloid leukemia cell differentiation protein Mcl-1 (Homo sapiens, UniProt Q07820). The class given is functional.
For another assay, the target named is Genome polyprotein (dengue virus type 2, UniProt P29990). In words: flavivirus cap methylation enzyme inhibition – biochemical, confirmation dose response, primary screen (AID 588689). The class given is functional.
Assay [12] concerns the target T5, Carboxy-terminal domain RNA polymerase II polypeptide A small phosphatase 1 (Homo sapiens, UniProt Q9GZU7).
T5 sequence (Q9GZU7 whole entry): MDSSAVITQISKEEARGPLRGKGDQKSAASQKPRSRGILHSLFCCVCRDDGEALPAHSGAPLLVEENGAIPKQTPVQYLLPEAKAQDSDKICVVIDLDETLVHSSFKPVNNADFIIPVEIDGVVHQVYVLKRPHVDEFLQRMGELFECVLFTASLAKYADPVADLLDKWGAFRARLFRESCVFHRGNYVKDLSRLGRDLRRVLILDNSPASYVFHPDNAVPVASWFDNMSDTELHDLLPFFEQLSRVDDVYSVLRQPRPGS
In words: CTDSP1 inhibitors, concentration-response, biochemical, absorbance readout, ultra-high-throughput screen actives (AID 540297). The class given is functional.

In assay [13] the target is DNA (cytosine-5)-methyltransferase 1 (Homo sapiens, UniProt P26358). In words: inhibition of DNA methylation by DNMT1 – biochemical, fluorescent molecular beacon, confirmation (AID 602386). The class given is functional.
For a further assay, the target named is Trypsin (Sus scrofa, UniProt P00761). Kind of assay: trypsin protease activity blockade – biochemical, quenched peptide fluorescence, cherry-pick, selectivity assay for Rce1 protease inhibitor project, dose response (AID 488789).
Another assay concerns the target T6, CAAX prenyl protease 2 (Saccharomyces cerevisiae S288c, UniProt Q03530).
T6 sequence (Q03530 whole entry): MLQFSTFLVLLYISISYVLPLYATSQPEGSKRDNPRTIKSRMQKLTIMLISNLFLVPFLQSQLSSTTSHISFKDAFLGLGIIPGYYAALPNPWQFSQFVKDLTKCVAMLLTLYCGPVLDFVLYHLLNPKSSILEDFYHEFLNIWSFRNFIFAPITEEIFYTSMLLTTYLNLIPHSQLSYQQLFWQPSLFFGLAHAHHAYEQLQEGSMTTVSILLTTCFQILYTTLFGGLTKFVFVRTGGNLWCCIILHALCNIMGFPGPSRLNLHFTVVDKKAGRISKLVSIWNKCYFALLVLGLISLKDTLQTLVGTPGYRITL
The class given is biochemical.

Assay [14] in a line: fluconazole-exposed Candida albicans growth modulators – fluorescence, retest, confirmation (AID 2467). The class given is functional, cell-based.
A further assay has as its target Large T antigen (Simian virus 40, UniProt P03070). The class given is functional, Betapolyomavirus macacae.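 Further: Confirmatory-stage PubChem screen for compounds that inhibit SV40 T antigen.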
Assay [15] in a line: Trypanosoma cruzi growth suppression in host cells – NIH3T3 host cells, beta-gal luminescence, confirmation (AID 2044).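 Further: intracellular parasites grown in NIH/3T3 mouse fibroblasts as host cells; luminescent beta-galactosidase reporter signal from transgenic T. cruzi replicating inside host cells; inhibitors lower the luminescence signal.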 The class given is functional, cell-based.
Assay [16] is described as follows: viability of PTEN-deleted HCT116 cells – cell-based, HCT116 PTEN knockout, dose response (AID 1047).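 Further: HCT116 colon tumor cells with PTEN knocked out; cells exposed to compound for 60 hours before readout; potency for loss of cell viability measured by luminescence.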 The class given is functional.
Assay [17] is described as follows: NIH3T3 cell viability loss – ATP luminescence, mouse fibroblasts, counter-screen, dose response (AID 2010).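 Further: cells exposed to compound for about 90 hours before reading.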 The class given is functional, cell-based.
Assay [18] in a line: viability of HCT116 lacking mutant beta-catenin – cell-based, human colon tumor, dose response (AID 1045).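 Further: HCT116 colon tumor cells with beta catenin knocked out; cells exposed to compound for 60 hours.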 The class given is functional.
In assay [19] the target is Heat shock protein HSP 90-alpha (Homo sapiens, UniProt P07900). The class given is functional, organism-based.
A short description of assay [20]: reduction of Shn3 3'UTR-driven luciferase in osteoblasts – cell-based, Clone20 osteoblasts, firefly luciferase, cherry-picked, dose response (AID 624132).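 Further: firefly luciferase luminescence from reporter carrying the Shn3 3'UTR in osteoblasts.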 The class given is functional.
Assay [21] can be described thus: loss of viability in HepG2 cells – cell-based, CellTiter-Glo, cherry-picked, cytotoxicity control for Shn3 inhibitor project, dose response (AID 624134). The class given is functional.
Assay [22] in a line: non-specific 3'UTR reporter inhibition in Clone20-Shn3RL – cell-based, Renilla luciferase, cherry-picked, counter-screen for Shn3 inhibitor project, dose response (AID 624133). The class given is functional.
Assay [23] addresses T7, Tyrosine-protein phosphatase non-receptor type 7 (Homo sapiens, UniProt P35236).
T7 sequence (P35236 whole entry): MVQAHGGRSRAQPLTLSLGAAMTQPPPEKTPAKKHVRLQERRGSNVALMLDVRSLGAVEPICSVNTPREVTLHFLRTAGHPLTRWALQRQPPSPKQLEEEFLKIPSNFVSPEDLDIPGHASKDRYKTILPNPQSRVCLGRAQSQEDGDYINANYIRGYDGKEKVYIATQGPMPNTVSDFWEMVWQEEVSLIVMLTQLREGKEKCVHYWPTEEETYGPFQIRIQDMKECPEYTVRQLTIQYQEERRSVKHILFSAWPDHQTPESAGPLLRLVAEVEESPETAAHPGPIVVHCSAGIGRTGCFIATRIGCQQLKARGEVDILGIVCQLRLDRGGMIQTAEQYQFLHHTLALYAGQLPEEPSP
In words: redox-active compounds inhibiting HePTP phosphatase – biochemical, fluorescence, mechanism study (AID 2068). The class given is functional.

Activity calls are given as the source filed them.

T3 sequence (P98170 whole entry): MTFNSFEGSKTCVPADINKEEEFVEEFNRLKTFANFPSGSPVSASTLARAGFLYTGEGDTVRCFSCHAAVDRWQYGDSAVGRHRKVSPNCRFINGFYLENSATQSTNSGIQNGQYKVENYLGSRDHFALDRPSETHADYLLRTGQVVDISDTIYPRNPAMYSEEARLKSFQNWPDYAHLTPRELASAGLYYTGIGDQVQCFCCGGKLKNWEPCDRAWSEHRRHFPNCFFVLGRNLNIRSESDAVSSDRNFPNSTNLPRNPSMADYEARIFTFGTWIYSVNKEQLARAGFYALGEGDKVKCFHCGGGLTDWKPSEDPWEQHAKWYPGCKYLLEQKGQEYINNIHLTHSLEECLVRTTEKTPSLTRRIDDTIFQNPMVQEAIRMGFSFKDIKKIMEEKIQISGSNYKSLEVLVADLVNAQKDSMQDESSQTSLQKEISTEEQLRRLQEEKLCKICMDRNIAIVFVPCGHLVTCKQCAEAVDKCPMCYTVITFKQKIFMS
T4 sequence (Q00975 whole entry): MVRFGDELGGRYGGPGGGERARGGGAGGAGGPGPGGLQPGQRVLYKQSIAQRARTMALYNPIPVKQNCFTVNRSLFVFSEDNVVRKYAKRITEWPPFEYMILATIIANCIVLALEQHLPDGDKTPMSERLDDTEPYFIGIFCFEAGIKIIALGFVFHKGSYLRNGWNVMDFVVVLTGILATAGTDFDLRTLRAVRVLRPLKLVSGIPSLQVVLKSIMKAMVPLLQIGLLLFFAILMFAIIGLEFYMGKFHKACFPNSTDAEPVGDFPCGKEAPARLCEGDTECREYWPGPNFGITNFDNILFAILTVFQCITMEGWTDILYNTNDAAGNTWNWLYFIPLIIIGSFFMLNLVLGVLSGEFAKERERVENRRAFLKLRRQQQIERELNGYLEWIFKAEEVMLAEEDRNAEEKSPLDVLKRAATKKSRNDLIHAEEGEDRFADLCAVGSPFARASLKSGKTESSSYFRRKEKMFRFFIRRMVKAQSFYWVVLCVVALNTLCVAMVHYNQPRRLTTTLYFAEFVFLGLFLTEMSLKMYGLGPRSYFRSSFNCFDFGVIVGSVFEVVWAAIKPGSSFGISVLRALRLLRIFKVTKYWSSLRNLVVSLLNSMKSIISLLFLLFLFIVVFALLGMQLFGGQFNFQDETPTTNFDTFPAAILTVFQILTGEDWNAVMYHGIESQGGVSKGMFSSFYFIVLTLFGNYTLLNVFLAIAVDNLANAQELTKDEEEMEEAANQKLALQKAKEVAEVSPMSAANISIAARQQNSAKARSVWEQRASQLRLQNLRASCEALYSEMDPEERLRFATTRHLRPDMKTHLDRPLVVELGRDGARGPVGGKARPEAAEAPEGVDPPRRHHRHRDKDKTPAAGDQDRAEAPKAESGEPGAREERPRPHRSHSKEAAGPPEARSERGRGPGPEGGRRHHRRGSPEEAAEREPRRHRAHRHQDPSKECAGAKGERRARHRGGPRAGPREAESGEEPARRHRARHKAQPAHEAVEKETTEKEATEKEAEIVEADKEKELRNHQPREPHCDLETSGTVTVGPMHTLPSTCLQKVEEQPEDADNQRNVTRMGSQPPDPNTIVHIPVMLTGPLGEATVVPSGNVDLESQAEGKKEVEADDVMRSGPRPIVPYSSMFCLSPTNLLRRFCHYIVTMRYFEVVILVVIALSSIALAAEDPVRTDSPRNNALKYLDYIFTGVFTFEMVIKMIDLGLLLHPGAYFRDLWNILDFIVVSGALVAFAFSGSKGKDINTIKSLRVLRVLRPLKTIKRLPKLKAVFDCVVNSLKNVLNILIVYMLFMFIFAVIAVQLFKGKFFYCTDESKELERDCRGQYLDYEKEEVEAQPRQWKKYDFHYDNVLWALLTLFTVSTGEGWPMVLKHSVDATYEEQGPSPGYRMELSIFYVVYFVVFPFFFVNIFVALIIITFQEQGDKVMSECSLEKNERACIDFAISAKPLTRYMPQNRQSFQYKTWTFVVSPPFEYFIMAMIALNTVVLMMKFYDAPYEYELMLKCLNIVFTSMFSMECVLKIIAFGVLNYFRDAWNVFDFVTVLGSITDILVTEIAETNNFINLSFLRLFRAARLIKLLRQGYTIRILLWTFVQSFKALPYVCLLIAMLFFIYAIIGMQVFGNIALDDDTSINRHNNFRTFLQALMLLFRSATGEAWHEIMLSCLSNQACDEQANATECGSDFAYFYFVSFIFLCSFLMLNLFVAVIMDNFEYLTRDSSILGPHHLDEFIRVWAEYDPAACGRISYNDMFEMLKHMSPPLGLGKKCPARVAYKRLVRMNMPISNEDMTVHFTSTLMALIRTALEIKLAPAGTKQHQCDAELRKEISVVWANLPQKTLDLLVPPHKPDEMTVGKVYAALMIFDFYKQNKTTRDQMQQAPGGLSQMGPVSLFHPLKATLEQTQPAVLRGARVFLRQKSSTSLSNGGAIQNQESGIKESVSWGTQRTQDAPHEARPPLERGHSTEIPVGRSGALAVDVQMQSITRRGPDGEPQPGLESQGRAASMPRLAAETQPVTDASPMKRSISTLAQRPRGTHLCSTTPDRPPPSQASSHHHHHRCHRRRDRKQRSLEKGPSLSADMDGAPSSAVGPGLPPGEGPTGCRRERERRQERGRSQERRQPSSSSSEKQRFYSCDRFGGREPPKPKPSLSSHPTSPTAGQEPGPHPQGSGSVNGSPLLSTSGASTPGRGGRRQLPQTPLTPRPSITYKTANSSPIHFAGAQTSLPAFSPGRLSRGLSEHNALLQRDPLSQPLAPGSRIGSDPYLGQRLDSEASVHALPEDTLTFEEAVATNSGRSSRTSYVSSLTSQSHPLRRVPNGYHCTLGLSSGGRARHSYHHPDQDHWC
T4 sequence (Q02410 whole entry): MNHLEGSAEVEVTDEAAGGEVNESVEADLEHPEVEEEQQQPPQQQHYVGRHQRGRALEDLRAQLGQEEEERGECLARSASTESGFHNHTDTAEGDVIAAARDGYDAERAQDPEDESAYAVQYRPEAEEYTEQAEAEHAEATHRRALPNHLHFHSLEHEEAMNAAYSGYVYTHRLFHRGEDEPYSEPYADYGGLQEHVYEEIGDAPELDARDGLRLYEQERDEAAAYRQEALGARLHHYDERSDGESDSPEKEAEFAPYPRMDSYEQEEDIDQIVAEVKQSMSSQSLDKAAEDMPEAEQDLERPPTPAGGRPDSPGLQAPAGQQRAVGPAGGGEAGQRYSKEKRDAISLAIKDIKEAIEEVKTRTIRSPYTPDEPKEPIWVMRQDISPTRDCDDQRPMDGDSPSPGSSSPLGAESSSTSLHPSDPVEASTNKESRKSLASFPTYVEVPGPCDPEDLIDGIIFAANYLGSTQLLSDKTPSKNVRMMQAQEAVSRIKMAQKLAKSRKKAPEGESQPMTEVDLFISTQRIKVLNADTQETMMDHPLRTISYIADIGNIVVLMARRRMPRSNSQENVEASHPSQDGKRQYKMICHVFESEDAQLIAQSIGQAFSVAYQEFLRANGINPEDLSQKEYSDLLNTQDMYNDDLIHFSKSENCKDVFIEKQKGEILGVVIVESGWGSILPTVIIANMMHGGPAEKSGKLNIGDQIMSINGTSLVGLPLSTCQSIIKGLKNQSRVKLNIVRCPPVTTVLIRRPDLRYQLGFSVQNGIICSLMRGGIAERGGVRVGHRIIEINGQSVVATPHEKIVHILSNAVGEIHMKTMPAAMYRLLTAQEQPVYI
Chain of DNA dC->dU-editing enzyme APOBEC-3G (Q9HC16 whole entry): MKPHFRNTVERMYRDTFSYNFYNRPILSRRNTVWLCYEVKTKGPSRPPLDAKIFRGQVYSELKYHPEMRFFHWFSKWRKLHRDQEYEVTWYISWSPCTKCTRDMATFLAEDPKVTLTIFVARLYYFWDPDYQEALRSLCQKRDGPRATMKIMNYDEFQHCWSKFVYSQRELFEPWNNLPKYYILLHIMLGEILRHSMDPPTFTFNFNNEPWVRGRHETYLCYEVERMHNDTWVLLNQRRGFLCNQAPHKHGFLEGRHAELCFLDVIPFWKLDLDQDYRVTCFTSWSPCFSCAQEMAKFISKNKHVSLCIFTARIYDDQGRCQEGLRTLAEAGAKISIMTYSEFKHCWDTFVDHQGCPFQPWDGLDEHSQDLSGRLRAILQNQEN
Chain of DNA dC->dU-editing enzyme APOBEC-3A (P31941 whole entry): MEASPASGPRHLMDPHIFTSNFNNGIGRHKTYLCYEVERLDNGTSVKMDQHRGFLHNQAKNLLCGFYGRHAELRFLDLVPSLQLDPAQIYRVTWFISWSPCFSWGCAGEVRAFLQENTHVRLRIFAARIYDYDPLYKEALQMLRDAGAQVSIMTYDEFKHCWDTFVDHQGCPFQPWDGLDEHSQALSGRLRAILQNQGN
Chain of Induced myeloid leukemia cell differentiation protein Mcl-1 (Q07820 whole entry): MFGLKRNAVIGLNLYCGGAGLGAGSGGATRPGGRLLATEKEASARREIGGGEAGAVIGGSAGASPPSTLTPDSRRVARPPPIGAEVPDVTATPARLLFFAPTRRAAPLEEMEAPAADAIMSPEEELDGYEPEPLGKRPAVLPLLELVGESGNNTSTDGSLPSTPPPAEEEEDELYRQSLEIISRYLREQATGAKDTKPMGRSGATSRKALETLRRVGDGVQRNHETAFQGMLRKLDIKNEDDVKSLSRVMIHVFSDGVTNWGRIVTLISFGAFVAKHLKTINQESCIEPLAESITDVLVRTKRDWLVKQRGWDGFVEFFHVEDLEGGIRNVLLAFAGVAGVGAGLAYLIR
Chain of Trypsin (P00761 whole entry): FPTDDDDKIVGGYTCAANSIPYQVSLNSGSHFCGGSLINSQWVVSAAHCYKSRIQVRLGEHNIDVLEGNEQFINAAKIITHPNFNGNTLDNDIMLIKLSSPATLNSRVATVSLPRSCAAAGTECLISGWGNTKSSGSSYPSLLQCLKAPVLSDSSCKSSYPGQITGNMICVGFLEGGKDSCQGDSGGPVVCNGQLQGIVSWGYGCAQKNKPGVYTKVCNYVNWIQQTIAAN

Consider `COc1ccccc1NC(=O)COC(=O)c1cc2c(s1)CCC2`, for which the values for the IC50 in [1] and in assay [2] were 19.1 µM (active) and 51 µM (active), respectively. In addition, the concentration at half-maximal activity (AC50) (as a rule, the concentration giving half of the maximal activity seen) on Caspase-6 is 5.53 µM (active).
In the case of `CCCC(=O)N1c2ccccc2C(=C2SC(C(=O)OC)=C(C(=O)OC)S2)C(=S)C1(C)C`, the values for the EC50 (in assay [3]; in assay [4]; in the assay on H4) were > 60 µM (not active), > 120 µM (not active) and > 120 µM (not active), respectively. Besides, the IC50 (as a rule, the concentration that inhibits the measured activity by half) at Beta-galactosidase [5] was > 66.6 µM (inactive).
On to `CCN1CCN(S(=O)(=O)c2ccc(Cl)c(C(=O)Nc3ccccc3N3CCOCC3)c2)CC1`, for which the values for the IC50 in assay [1] and in [2] were 4.8 µM (active) and 3.81 µM (active), respectively.
Regarding `Cc1c(Br)cccc1NC(=O)c1sccc1-n1cccc1`, the IC50 was > 100 µM (inactive) in assay [6] and > 100 µM (not active) in assay [7].
Consider `O=C(/C=C/c1ccc(Cl)cc1)N1CCN(c2ccc([N+](=O)[O-])c(N3CCOCC3)c2)CC1`, for which the IC50 in assay [6] was > 100 µM (inactive); in assay [7] it was > 100 µM (not active); at Beta-galactosidase [8], > 80 µM (inactive).
Regarding `COc1ccc(-c2csc(NC(=O)CSc3nc(C)nc4sc(C(=O)O)c(C)c34)n2)cc1`, the IC50 was > 56.8 µM (not active) in [9]; > 50 µM (inactive) in [10]; 7.81 µM (active) in [11]; 92.7 µM (active) at Genome polyprotein; 4.31 µM (active) in assay [12]; 14.6 µM (active) in [13].
As to `COc1cc2cc(C(=O)O)[nH]c2c(OC)c1OC`, the results for the concentration at half-maximal activity (AC50) at Trypsin and at CAAX prenyl protease 2 were 23 µM (active) and > 100 µM (inactive), respectively.
On to `Cc1ccc(-n2nnnc2C(Cl)(Cl)c2nnnn2-c2ccc(C)cc2)cc1`, for which the half-inhibitory concentration (IC50) is 4.55 µM (active) in assay [9], 11.1 µM (active) at Large T antigen and 5.57 µM (active) in assay [10]. Besides, the EC50 (in general, the concentration giving half of the maximal effect) in assay [14] is > 38 µM (not active); in assay [15], 1.11 µM (active); in [16], 9.09 µM (active); in assay [17], 15 µM (active); in assay [18], 9.11 µM (active). Besides, the half-maximal activity concentration (AC50) is 1.27 µM (active) in [19], 4.71 µM (active) in assay [20], > 70 µM (inactive) in [21] and 15.6 µM (active) in assay [22].
As for `CCCCNC(=O)Nc1ccc2nc(-c3ccco3)c(-c3ccco3)nc2c1`, the concentration for half-maximal inhibition (IC50) in assay [23] is 0.452 µM (active).
As to `c1cc(CNc2ccc(N3CCOCC3)cc2)ccn1`, the figures for the IC50 in assay [6] and in [7] were > 100 µM (inactive) and > 100 µM (not active), respectively.
